Experimental findings from patent US10981926B2 (Janssen Pharmaceutica NV, priority 2016, dated 2021) are described below.

For test [1], the target named is T1, wild-type Androgen Receptor (AR-wt) (Homo sapiens (Human), UniProt P10275). Put plainly: LNCaP-AR-wt ANT reporter assay (antagonist mode). It counts as cell-based. The settings on record: for Emax: read-out: LNCaP-AR-wt ANT MAX % Inh; for IC50: pIC50 = −Log10(IC50 in Molar), read-out: LNCaP-AR-wt ANT pIC50 (converted). Background: In a reporter assay the amount or activity of a reporter protein is the signal.
T1 sequence (P10275 whole entry): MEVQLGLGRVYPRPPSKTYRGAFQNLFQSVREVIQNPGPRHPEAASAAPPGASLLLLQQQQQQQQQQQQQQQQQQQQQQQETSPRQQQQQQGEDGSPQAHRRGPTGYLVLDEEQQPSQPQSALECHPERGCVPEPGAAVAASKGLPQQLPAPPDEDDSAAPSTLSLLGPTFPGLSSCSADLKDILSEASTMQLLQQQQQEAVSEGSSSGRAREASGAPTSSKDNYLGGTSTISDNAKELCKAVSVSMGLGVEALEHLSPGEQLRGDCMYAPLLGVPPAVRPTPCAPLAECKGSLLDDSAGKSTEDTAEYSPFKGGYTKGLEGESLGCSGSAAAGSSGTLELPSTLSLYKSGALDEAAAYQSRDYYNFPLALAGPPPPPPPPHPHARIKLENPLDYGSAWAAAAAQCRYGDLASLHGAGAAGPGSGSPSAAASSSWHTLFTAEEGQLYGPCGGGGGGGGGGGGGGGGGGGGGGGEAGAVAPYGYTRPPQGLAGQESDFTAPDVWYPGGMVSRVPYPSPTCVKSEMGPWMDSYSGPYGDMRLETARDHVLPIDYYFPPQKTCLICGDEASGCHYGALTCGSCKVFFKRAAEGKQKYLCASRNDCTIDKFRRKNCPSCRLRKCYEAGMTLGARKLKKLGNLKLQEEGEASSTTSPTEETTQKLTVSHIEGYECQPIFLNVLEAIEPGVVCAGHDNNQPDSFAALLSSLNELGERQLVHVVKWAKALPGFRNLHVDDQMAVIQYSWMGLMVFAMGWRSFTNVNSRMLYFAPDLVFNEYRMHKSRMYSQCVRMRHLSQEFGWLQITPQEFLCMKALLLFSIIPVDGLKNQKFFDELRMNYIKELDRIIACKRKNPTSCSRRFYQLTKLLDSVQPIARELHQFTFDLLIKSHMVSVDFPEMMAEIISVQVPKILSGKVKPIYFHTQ

In test [2] the target is T1, wild-type Androgen Receptor (AR-wt). The test can be described thus: LNCaP-AR-wt AG reporter assay (agonist mode). It counts as cell-based. The settings on record: for Emax: read-out: LNCaP-AR-wt AG MAX % Stim; for EC50: pEC50 = −Log10(EC50 in Molar), read-out: LNCaP-AR-wt AG pEC50 (converted).
Test [3] addresses T2, F876L mutant Androgen Receptor (AR-F876L) (Homo sapiens (Human), UniProt P10275, F877L). The test can be described thus: LNCaP-AR-F876L ANT reporter assay (antagonist mode). It counts as cell-based. The settings on record: for Emax: read-out: LNCaP-AR-F876L ANT MAX % Inh; for IC50: pIC50 = −Log10(IC50 in Molar), read-out: LNCaP-AR-F876L ANT pIC50 (converted).
In test [4] the target is T2, F876L mutant Androgen Receptor (AR-F876L). Put plainly: LNCaP-AR-F876L AG reporter assay (agonist mode). It counts as cell-based. The settings on record: for Emax: read-out: LNCaP-AR-F876L AG MAX % Stim; for EC50: pEC50 = −Log10(EC50 in Molar), read-out: LNCaP-AR-F876L AG pEC50 (converted).
The subject of a further test is rGABA-gated Cl− channel. Put plainly: GABA-Gated Cl Channel Antagonist Radioligand Binding Assay. Also noted: species or system rat. The conditions noted are these: 10 μM single point, [35S]-TBPS, cerebral cortex membrane homogenates. On the procedure: GABA-gated C1 Chanel assays were performed at CEREP according to the following method. Membrane homogenates of cerebral cortex (120 μg protein) were incubated for 120 min at 22° C. with 3 nM […] in the absence or presence of the test compound in a buffer containing 50 mM Na2HPO4/KH2PO4 (pH 7.4) and 500 mM NaCl. Nonspecific binding was determined in the presence of 20 μM picrotoxinin. Following incubation, the samples were filtered rapidly under vacuum through glass fiber filters (GF/B, Packard) presoaked with 0.3% PEI and rinsed several times with ice-cold 50 mM Tris-HCl using a 96-sample cell harvester (Unifilter, Packard). The filters were dried then counted for radioactivity in a scintillation counter (Topcount, Packard) using a scintillation cocktail (Microscint 0, Packard). The results are expressed as a percent inhibition of the control radio ligand specific binding. The standard reference compound is picrotoxinin, which was tested in each experiment at several concentrations to obtain a competition curve from which its IC50 was calculated. In this assay, the following representative compounds disclosed herein had recorded activities at a 10 μM single point concentration in the GABA-gated Cl— Channel Binding Assay.

[5] abbreviates: antagonist mode, maximum % inhibition of R1881 control response over tested concentration range.
Setting [6] is: agonist mode, maximum % stimulation over tested concentration range.
[7] abbreviates: maximum % inhibition of R1881 control response over the tested concentration range.
Where [8] appears, read: maximum % stimulation (agonist response) over the tested concentration range.

The structures appear in SMILES notation.

T2 sequence (P10275 whole entry F877L): as the sequence (P10275 whole entry) above, with F877L counted along it

As to `C[N@+]1([O-])CC[C@@H](Oc2ccc(N3C(=S)N(c4cnc(C#N)c(C(F)(F)F)c4)C(=O)C34CCC4)cc2)CC1` [Cpd 191, 5-[8-[4-(1-methyl-1-oxido-piperidin-1-ium-4-yl)oxyphenyl]-5-oxo-7-thioxo-6,8-diazaspiro[3.4]octan-6-yl]-3-(trifluoromethyl)pyridine-2-carbonitrile], the Emax was 99.4% in test [1] (setting [5]), -0.2% in test [2] (setting [6]), 99.8% in test [3] (setting [5]) and 0% in test [4] (setting [6]). Moreover, the values for the IC50 in test [1] (antagonist mode) and in test [3] (antagonist mode) were 1380 nM and 1120 nM, respectively. The EC50 in test [2] (agonist mode) and in test [4] (agonist mode) was more than 15100 nM throughout. Moreover, in the test on rGABA-gated Cl− channel, the “rGABA-gated Cl− channel % inh @10 μM” value was found to be 47.9%.

Regarding `COCCN1CCC(Oc2ccc(N3C(=S)N(c4cnc(C#N)c(Cl)c4)C(=O)C34CCC4)cn2)CC1` [Cpd 70, 3-chloro-5-[8-[6-[[1-(2-methoxyethyl)-4-piperidyl]oxy]-3-pyridyl]-5-oxo-7-thioxo-6,8-diazaspiro[3.4]octan-6-yl]pyridine-2-carbonitrile], the IC50 in test [1] (antagonist mode) was 33.9 nM; in test [3] (antagonist mode), 38.9 nM. Further, the Emax in test [1] (setting [7]) stood at 98.8%; in test [2] (setting [8]), 0.8%; in test [3] (setting [7]) it was 97.1%; in test [4] (setting [8]), 3.6%. Also, the EC50 in test [2] (agonist mode) and in test [4] (agonist mode) was more than 15100 nM each time. For the same compound, the “rGABA-gated Cl− channel % inh @10 μM” value in the test with rGABA-gated Cl− channel came out at 9.2%.

Consider `N#CCN1CCC(Oc2ccc(N3C(=S)N(c4cnc(C#N)c(C(F)(F)F)c4)C(=O)C34CCC4)cn2)CC1` [Cpd 60, 5-[8-[6-[[1-(cyanomethyl)-4-piperidyl]oxy]-3-pyridyl]-5-oxo-7-thioxo-6,8-diazaspiro[3.4]octan-6-yl]-3-(trifluoromethyl)pyridine-2-carbonitrile], for which the IC50 is 22.9 nM in test [1] (antagonist mode) and 9.55 nM in test [3] (antagonist mode). Also, the Emax in test [1] (setting [7]) turned out to be 99.2%; in test [2] (setting [8]), 0.8%; in test [3] (setting [7]), 98.1%; in test [4] (setting [8]), 0.6%. Moreover, the EC50 in test [2] (agonist mode) and in test [4] (agonist mode) was more than 15100 nM in each case. Further, in the test with rGABA-gated Cl− channel, the “rGABA-gated Cl− channel % inh @10 μM” value was found to be 91.5%.

With `C[C@@H]1OC(c2ccc(N3C(=S)N(c4cnc(C#N)c(C(F)(F)F)c4)C(=O)C34CCC4)cc2)=C[C@H](O)[C@H]1O` [Cpd 135, 5-(5-(4-((2S,3R,4S)-3,4-dihydroxy-2-methyl-3,4-dihydro-2H-pyran-6-yl)phenyl)-8-oxo-6-thioxo-5,7-diazaspiro[3.4]octan-7-yl)-3-(trifluoromethyl)picolinonitrile], the figures for the IC50 in test [1] (antagonist mode) and in test [3] (antagonist mode) were 389 nM and 155 nM, respectively. Besides, the Emax is 104% in test [1] (setting [7]), 0.1% in test [2] (setting [8]), 102% in test [3] (setting [7]) and -0.1% in test [4] (setting [8]). Also, the EC50 in test [2] (agonist mode) and in test [4] (agonist mode) was more than 15100 nM throughout. The “rGABA-gated Cl− channel % inh @10 μM” value in the test on rGABA-gated Cl− channel is listed as 99.6%.

As to `N#Cc1ncc(N2C(=O)C3(CCC3)N(c3ccc(C4=CCCC(CO)O4)cc3)C2=S)cc1C(F)(F)F` (stereo not drawn) [Cpd 103, 5-(5-(4-(2-(hydroxymethyl)-3,4-dihydro-2H-pyran-6-yl)phenyl)-8-oxo-6-thioxo-5,7-diazaspiro[3.4]octan-7-yl)-3-(trifluoromethyl)picolinonitrile], the “rGABA-gated Cl− channel % inh @10 μM” value in the test on rGABA-gated Cl− channel is on record as 82.7%.

Turning to `N#Cc1ncc(N2C(=O)C3(CCC3)N(c3ccc(O)nc3)C2=S)cc1Cl` [Cpd 45, 3-chloro-5-[8-(6-hydroxy-3-pyridyl)-5-oxo-7-thioxo-6,8-diazaspiro[3.4]octan-6-yl]pyridine-2-carbonitrile], the IC50 in test [1] (antagonist mode) was 3020 nM; in test [3] (antagonist mode), 1260 nM. The Emax in test [1] (setting [7]) is 92.9%; in test [2] (setting [8]), -0.3%; in test [3] (setting [7]), 99.2%; in test [4] (setting [8]), 0%. Moreover, the EC50 in test [2] (agonist mode) and in test [4] (agonist mode) was more than 15100 nM each time.

On to `CN1CCC(Oc2ccc(N3C(=S)N(c4cnc(C#N)c(C(F)(F)F)c4)C(=O)C34CCC4)cc2)C(F)(F)C1` (racemic) [Cpd 137, (R,S)-5-[8-[4-[(3,3-difluoro-1-methyl-4-piperidyl)oxy]phenyl]-5-oxo-7-thioxo-6,8-diazaspiro[3.4]octan-6-yl]-3-(trifluoromethyl)pyridine-2-carbonitrile], for which the IC50 in test [1] (antagonist mode) was 49 nM; in test [3] (antagonist mode), 83.2 nM. For the same compound, the Emax in test [1] (setting [7]) was 102%; in test [2] (setting [8]), 0.3%; in test [3] (setting [7]) it was 98.7%; in test [4] (setting [8]) it was 0.9%. Further, the EC50 in test [2] (agonist mode) and in test [4] (agonist mode) was more than 15100 nM each time.

Turning to `COCCn1ncc2cc(N3C(=S)N(c4cnc(C#N)c(OC)c4)C(=O)C34CCC4)ccc21` [Cpd 173, 3-methoxy-5-[8-[1-(2-methoxyethyl)indazol-5-yl]-5-oxo-7-thioxo-6,8-diazaspiro[3.4]octan-6-yl]pyridine-2-carbonitrile], the results for the IC50 in test [1] (antagonist mode) and in test [3] (antagonist mode) were 437 nM and 186 nM, respectively. The Emax was determined as 100% in test [1] (setting [7]), 0.4% in test [2] (setting [8]), 100% in test [3] (setting [7]) and 0.1% in test [4] (setting [8]). Further, the EC50 in test [2] (agonist mode) and in test [4] (agonist mode) was more than 15100 nM each time.

For `CN1CCC(Oc2ccc(N3C(=S)N(c4cnc(C#N)c(Cl)c4)C(=O)C34CCC4)cn2)CC1` [Cpd 26], the IC50 in test [1] (antagonist mode) was 55 nM; in test [3] (antagonist mode) it was 69.2 nM. The Emax in test [1] (setting [7]) was determined as 101%; in test [2] (setting [8]) it was 0.4%; in test [3] (setting [7]) it was 100%; in test [4] (setting [8]), 0.5%. The EC50 in test [2] (agonist mode) and in test [4] (agonist mode) was more than 15100 nM each time.

For `N#Cc1ncc(N2C(=O)C3(CCC3)N(c3ccc4nn(CC5CCNCC5)cc4c3)C2=S)cc1C(F)(F)F` [Cpd 126, 5-[5-oxo-8-[2-(4-piperidylmethyl)indazol-5-yl]-7-thioxo-6,8-diazaspiro[3.4]octan-6-yl]-3-(trifluoromethyl)pyridine-2-carbonitrile], the IC50 in test [1] (antagonist mode) was 275 nM; in test [3] (antagonist mode), 204 nM. The Emax in test [1] (setting [7]) was 101%; in test [2] (setting [8]), 0.2%; in test [3] (setting [7]), 100%; in test [4] (setting [8]) it was 0.8%. For the same compound, the EC50 in test [2] (agonist mode) and in test [4] (agonist mode) was more than 15100 nM throughout.

Regarding `N#Cc1ncc(N2C(=O)C3(CCC3)N(c3ccc(O[C@@H]4CCN[C@H](CO)C4)cc3)C2=S)cc1C(F)(F)F` (racemic) [Cpd 223, 5-[8-(2SR,4RS)[4-[[2-(hydroxymethyl)-4-piperidyl]oxy]phenyl]-5-oxo-7-thioxo-6,8-diazaspiro[3.4]octan-6-yl]-3-(trifluoromethyl)pyridine-2-carbonitrile], the Emax in test [1] (setting [5]) stood at 101%; in test [2] (setting [6]), 0.5%; in test [3] (setting [5]), 100%; in test [4] (setting [6]) it was 0.4%. Besides, the IC50 was 372 nM in test [1] (antagonist mode) and 229 nM in test [3] (antagonist mode). Also, the EC50 in test [2] (agonist mode) and in test [4] (agonist mode) was more than 15100 nM in each case.

Consider `Cc1cc(N2C(=O)C3(CCC3)N(c3ccc(N4CCNC4=O)cc3)C2=S)cnc1C#N` [Cpd 9, 3-Methyl-5-{5-oxo-8-[4-(2-oxoimidazolidinyl)phenyl]-7-thioxo-6,8-diazaspiro[3.4]oct-6-yl}pyridine-2-carbonitrile], for which the IC50 in test [1] (antagonist mode) was 1200 nM; in test [3] (antagonist mode), 575 nM. Moreover, the Emax worked out at 94.2% in test [1] (setting [7]), 0.1% in test [2] (setting [8]), 98.4% in test [3] (setting [7]) and 0.5% in test [4] (setting [8]). Further, the EC50 in test [2] (agonist mode) and in test [4] (agonist mode) was more than 15100 nM throughout.
